Tested on: 521955-158-R2-J5-PDC complex spheroids, viability
Experiment: Anticancer human tumor 521955-158-R2-J5-PDC patient-derived pancreatic carcinoma cell line growth inhibition [RAS]
Conditions: for IC50: curve of first compound; for viability, T/C: stronger effect = lower value
Procedure, shortened: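 Multi-cell-type spheroids: tumor cells plus HUVEC endothelial cells and mesenchymal stem cells. RAS-pathway inhibitors were combined with targeted agents, each dosed in half-log steps down from clinical Cmax, or from 10 microM when Cmax was unknown.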

[1] = second compound 0.000949 µM, first compound 0.0316 µM
[2] = second compound 0.000949 µM, first compound 0.1 µM
[3] = second compound 0.000949 µM, first compound 0.316 µM
[4] = second compound 0.000949 µM, first compound 1 µM
[5] = second compound 0.000949 µM, first compound 3.16 µM
[6] = second compound 0.000949 µM, first compound 10 µM
[7] = second compound 0.003 µM, first compound 0.0316 µM
[8] = second compound 0.003 µM, first compound 0.1 µM
[9] = second compound 0.003 µM, first compound 0.316 µM
[10] = second compound 0.003 µM, first compound 1 µM
[11] = second compound 0.003 µM, first compound 3.16 µM
[12] = second compound 0.003 µM, first compound 10 µM
[13] = second compound 0.00949 µM, first compound 0.0316 µM
[14] = second compound 0.00949 µM, first compound 0.1 µM
[15] = second compound 0.00949 µM, first compound 0.316 µM
[16] = second compound 0.00949 µM, first compound 1 µM
[17] = second compound 0.00949 µM, first compound 3.16 µM
[18] = second compound 0.00949 µM, first compound 10 µM
[19] = second compound 0.03 µM, first compound 0.0316 µM
[20] = second compound 0.03 µM, first compound 0.1 µM
[21] = second compound 0.03 µM, first compound 0.316 µM
[22] = second compound 0.03 µM, first compound 1 µM
[23] = second compound 0.03 µM, first compound 3.16 µM
[24] = second compound 0.03 µM, first compound 10 µM
[25] = second compound 0.0949 µM, first compound 0.0316 µM
[26] = second compound 0.0949 µM, first compound 0.1 µM
[27] = second compound 0.0949 µM, first compound 0.316 µM
[28] = second compound 0.0949 µM, first compound 1 µM
[29] = second compound 0.0949 µM, first compound 3.16 µM
[30] = second compound 0.0949 µM, first compound 10 µM
[31] = second compound 0.3 µM, first compound 0.0316 µM
[32] = second compound 0.3 µM, first compound 0.1 µM
[33] = second compound 0.3 µM, first compound 0.316 µM
[34] = second compound 0.3 µM, first compound 1 µM
[35] = second compound 0.3 µM, first compound 3.16 µM
[36] = second compound 0.3 µM, first compound 10 µM
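Note: compound exposure lasted seven days before the viability read.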
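Throughout, for viability, T/C: spheroids also contain HUVEC endothelial cells and mesenchymal stem cells as stroma.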

## NC1c2ccccc2OC12CCN(c1cnc3c(N4CCCc5ncccc54)n[nH]c3n1)CC2 (stereo unspecified) + CCn1c(-c2cccnc2C(C)OC)c2c3cc(ccc31)N1CCOC(CC(NC(=O)C(C(C)C)N(C)C(=O)C3(F)CCN(C(=O)C#CC(C)(C)N(C)C)CC3)C(=O)N3CCCC(N3)C(=O)OCC(C)(C)C2)C1
Second compound 0.000949 µM
  IC50: 4500 nM
Second compound 0.003 µM
  IC50: > 10000 nM
Second compound 0.00949 µM
  IC50: 987 nM
Second compound 0.03 µM
  IC50: > 10000 nM
Second compound 0.0949 µM
  IC50: 1200 nM
Second compound 0.3 µM
  IC50: 129 nM
[1]
  viability, T/C: 62.7%
[2]
  viability, T/C: 61.4%
[3]
  viability, T/C: 53.5%
[4]
  viability, T/C: 52.3%
[5]
  viability, T/C: 50.2%
[6]
  viability, T/C: 50%
[7]
  viability, T/C: 64%
[8]
  viability, T/C: 51%
[9]
  viability, T/C: 58.8%
[10]
  viability, T/C: 55.4%
[11]
  viability, T/C: 52.7%
[12]
  viability, T/C: 49.8%
[13]
  viability, T/C: 53.7%
[14]
  viability, T/C: 48.1%
[15]
  viability, T/C: 51.8%
[16]
  viability, T/C: 52.5%
[17]
  viability, T/C: 53.2%
[18]
  viability, T/C: 43.6%
[19]
  viability, T/C: 60.3%
[20]
  viability, T/C: 56.8%
[21]
  viability, T/C: 44.2%
[22]
  viability, T/C: 51.3%
[23]
  viability, T/C: 58.9%
[24]
  viability, T/C: 47.1%
[25]
  viability, T/C: 52.9%
[26]
  viability, T/C: 54.4%
[27]
  viability, T/C: 43.3%
[28]
  viability, T/C: 49.7%
[29]
  viability, T/C: 56.5%
[30]
  viability, T/C: 45.7%
[31]
  viability, T/C: 51.3%
[32]
  viability, T/C: 46.3%
[33]
  viability, T/C: 51.9%
[34]
  viability, T/C: 51.3%
[35]
  viability, T/C: 49.5%
[36]
  viability, T/C: 42.9%

## CCc1c2c(nc3ccc(O)cc13)-c1cc3c(c(=O)n1C2)COC(=O)[C@]3(O)CC + CCn1c(-c2cc(N3CCN(C)CC3)cnc2C(C)OC)c2c3cc(ccc31)-c1csc(n1)CC(NC(=O)C1CC1C)C(=O)N1CCCC(N1)C(=O)OCC(C)(C)C2
Second compound 0.000949 µM
  IC50: < 0.949 nM
Second compound 0.003 µM
  IC50: < 0.949 nM
Second compound 0.00949 µM
  IC50: < 0.949 nM
Second compound 0.03 µM
  IC50: < 0.949 nM
Second compound 0.0949 µM
  IC50: < 0.949 nM
Second compound 0.3 µM
  IC50: < 0.949 nM
Second compound 0.000949 µM, first compound 0.000949 µM
  viability, T/C: 30.3%
Second compound 0.000949 µM, first compound 0.003 µM
  viability, T/C: 23.1%
Second compound 0.000949 µM, first compound 0.00949 µM
  viability, T/C: 20.6%
Second compound 0.000949 µM, first compound 0.03 µM
  viability, T/C: 6.46%
Second compound 0.000949 µM, first compound 0.0949 µM
  viability, T/C: 5.57%
Second compound 0.000949 µM, first compound 0.3 µM
  viability, T/C: 4.03%
Second compound 0.003 µM, first compound 0.000949 µM
  viability, T/C: 30.4%
Second compound 0.003 µM, first compound 0.003 µM
  viability, T/C: 26.8%
Second compound 0.003 µM, first compound 0.00949 µM
  viability, T/C: 19.9%
Second compound 0.003 µM, first compound 0.03 µM
  viability, T/C: 10.5%
Second compound 0.003 µM, first compound 0.0949 µM
  viability, T/C: 8.02%
Second compound 0.003 µM, first compound 0.3 µM
  viability, T/C: 5.19%
Second compound 0.00949 µM, first compound 0.000949 µM
  viability, T/C: 26.2%
Second compound 0.00949 µM, first compound 0.003 µM
  viability, T/C: 26%
Second compound 0.00949 µM, first compound 0.00949 µM
  viability, T/C: 19.6%
Second compound 0.00949 µM, first compound 0.03 µM
  viability, T/C: 9.8%
Second compound 0.00949 µM, first compound 0.0949 µM
  viability, T/C: 10.9%
Second compound 0.00949 µM, first compound 0.3 µM
  viability, T/C: 5.95%
Second compound 0.03 µM, first compound 0.000949 µM
  viability, T/C: 19.4%
Second compound 0.03 µM, first compound 0.003 µM
  viability, T/C: 21.2%
Second compound 0.03 µM, first compound 0.00949 µM
  viability, T/C: 13.2%
Second compound 0.03 µM, first compound 0.03 µM
  viability, T/C: 8.77%
Second compound 0.03 µM, first compound 0.0949 µM
  viability, T/C: 10.2%
Second compound 0.03 µM, first compound 0.3 µM
  viability, T/C: 5.37%
Second compound 0.0949 µM, first compound 0.000949 µM
  viability, T/C: 11.3%
Second compound 0.0949 µM, first compound 0.003 µM
  viability, T/C: 14.1%
Second compound 0.0949 µM, first compound 0.00949 µM
  viability, T/C: 8.2%
Second compound 0.0949 µM, first compound 0.03 µM
  viability, T/C: 6.36%
Second compound 0.0949 µM, first compound 0.0949 µM
  viability, T/C: 5.92%
Second compound 0.0949 µM, first compound 0.3 µM
  viability, T/C: 2.8%
Second compound 0.3 µM, first compound 0.000949 µM
  viability, T/C: 8.86%
Second compound 0.3 µM, first compound 0.003 µM
  viability, T/C: 10.8%
Second compound 0.3 µM, first compound 0.00949 µM
  viability, T/C: 8.12%
Second compound 0.3 µM, first compound 0.03 µM
  viability, T/C: 5.86%
Second compound 0.3 µM, first compound 0.0949 µM
  viability, T/C: 6.11%
Second compound 0.3 µM, first compound 0.3 µM
  viability, T/C: 2.57%

## CC1(O)CCCC1n1c(=O)c(C(F)F)cc2cnc(NC3CCN(S(C)(=O)=O)CC3)nc21 (stereo unspecified) + CCn1c(-c2cc(N3CCN(C)CC3)cnc2C(C)OC)c2c3cc(ccc31)-c1csc(n1)CC(NC(=O)C1CC1C)C(=O)N1CCCC(N1)C(=O)OCC(C)(C)C2
Second compound 0.000949 µM
  IC50: 31.6 nM
Second compound 0.003 µM
  IC50: < 31.6 nM
Second compound 0.00949 µM
  IC50: < 31.6 nM
Second compound 0.03 µM
  IC50: < 31.6 nM
Second compound 0.0949 µM
  IC50: < 31.6 nM
Second compound 0.3 µM
  IC50: < 31.6 nM
[1]
  viability, T/C: 33%
[2]
  viability, T/C: 39%
[3]
  viability, T/C: 36.6%
[4]
  viability, T/C: 42.8%
[5]
  viability, T/C: 63.2%
[6]
  viability, T/C: 9%
[7]
  viability, T/C: 35.6%
[8]
  viability, T/C: 34.5%
[9]
  viability, T/C: 37.5%
[10]
  viability, T/C: 43.1%
[11]
  viability, T/C: 50.5%
[12]
  viability, T/C: 10.9%
[13]
  viability, T/C: 29.2%
[14]
  viability, T/C: 29.9%
[15]
  viability, T/C: 33.2%
[16]
  viability, T/C: 32.6%
[17]
  viability, T/C: 49.6%
[18]
  viability, T/C: 9.41%
[19]
  viability, T/C: 18.9%
[20]
  viability, T/C: 20.1%
[21]
  viability, T/C: 20.8%
[22]
  viability, T/C: 24.8%
[23]
  viability, T/C: 28.9%
[24]
  viability, T/C: 6.82%
[25]
  viability, T/C: 10.6%
[26]
  viability, T/C: 13.1%
[27]
  viability, T/C: 13.9%
[28]
  viability, T/C: 16.2%
[29]
  viability, T/C: 21.5%
[30]
  viability, T/C: 7%
[31]
  viability, T/C: 10.8%
[32]
  viability, T/C: 11.3%
[33]
  viability, T/C: 11.2%
[34]
  viability, T/C: 13.9%
[35]
  viability, T/C: 19.1%
[36]
  viability, T/C: 6.07%
